Laboratory results as given in US11229622B2, “Cosmetological and pharmaceutical composition based on combinatorial quercetin derivative” (priority 2017, dated 2022).

Key:
[1] = test system: carrageenan edema of the foot; settings: from references [14, 16]; cited from earlier work
[2] = Biological activity of fully substituted quercetins (test not specified)
[3] = test system: systemic blood pressure of cats; experiment: Antihypertensive effect in cats; format: in vivo; settings: 3 hours, Octadine 20.0 mg/kg (0.08 mmol/kg), Greenflo 10.0 mg/kg (0.05 mmol/kg)
[4] = test system: systemic blood pressure of rabbits; experiment: Antihypertensive effect in rabbits; format: in vivo; settings: intravenous, 3 hours, Octadine 15.0 mg/kg (0.06 mmol/kg), Greenflo 10.0 mg/kg (0.05 mmol/kg)
[5] = test system: SBP of white rats; experiment: Antihypertensive effect in normotensive white rats; format: in vivo; settings: for Antihypertensive effect, %: intravenous, after 3 hours, Octadine 6.2 mg/kg, Greenflo 5.0 mg/kg (as thick chlorophyllipt extract), 0.025 mmol/kg
Procedure: The antihypertensive effect of the drugs was evaluated after 3 hours of observation. Digital data table.
For an objective comparison of the activity of the studied substances, ED30 was experimentally established (a unit of action that causes a decrease in SBP by 30%) for each drug. For this purpose, the value of the hypotensive effect of various doses of substances in three groups of five white rats was determined in experiment, the arithmetic mean of the obtained series and their standard errors were calculated. Then, digital data was plotted and ED30 was calculated.
An indicator of the true hypotensive effect of a new chemical is its ability to lower pathologically elevated SBP. To solve this problem, 5 adult white rats with spontaneous hypertension (weight 260-280 g) were used, in which, before the experiment, the level of SBP averaged 180±1.7 mm Hg. For comparison, an experiment was conducted on 5 white rats with normal SBP. 17.

O=C(O)Cc1ccccc1Nc1c(Cl)cccc1Cl [DN, sodium diclofenac]
ED 50, mg/kg [1]: 8.0 [14, 16] mg/kg

O=C(O)CCC(=O)Oc1cc(OC(=O)CCC(=O)O)c2c(=O)c(OC(=O)CCC(=O)O)c(-c3ccc(OC(=O)CCC(=O)O)c(OC(=O)CCC(=O)O)c3)oc2c1 [Fully succinylated quercetin, pentasuccinyl quercetin]
biological activity [2]: did not exhibit biological activity

N=C(N)NCCN1CCCCCCC1 [Octadine]
Antihypertensive effect, % [3]: 35.0 ± 9.9% | Antihypertensive effect, % [4]: 32.0 ± 6.1% | The effect, % (hypotensive) ([5]; dose 5.0 mg/kg): 18.0 ± 2.7% | The effect, % (hypotensive) ([5]; dose 10.0 mg/kg): 26.0 ± 1.5% | The effect, % (hypotensive) ([5]; dose 20.0 mg/kg): 33.0 ± 4.9% | Antihypertensive effect, % [5]: 19.7 ± 2.2% | Antihypertensive effect, % ([5]; listed as octadine): 19.7±2.2%
